Reference: patent US10835719B2, “Drug releasing coatings for medical devices” (Lutonix, Inc., priority 2006, dated 2020)

Tests used:
[1] = cited from earlier work
[2] = Stability of additive with paclitaxel under ethylene oxide sterilization, heating and aging; assay type: physicochemical; details: additive formulated with paclitaxel; reacted with paclitaxel
[3] = molecular target: albumin (Homo sapiens, UniProt P02768); details: cited from earlier work
Chain of albumin (P02768 25-609): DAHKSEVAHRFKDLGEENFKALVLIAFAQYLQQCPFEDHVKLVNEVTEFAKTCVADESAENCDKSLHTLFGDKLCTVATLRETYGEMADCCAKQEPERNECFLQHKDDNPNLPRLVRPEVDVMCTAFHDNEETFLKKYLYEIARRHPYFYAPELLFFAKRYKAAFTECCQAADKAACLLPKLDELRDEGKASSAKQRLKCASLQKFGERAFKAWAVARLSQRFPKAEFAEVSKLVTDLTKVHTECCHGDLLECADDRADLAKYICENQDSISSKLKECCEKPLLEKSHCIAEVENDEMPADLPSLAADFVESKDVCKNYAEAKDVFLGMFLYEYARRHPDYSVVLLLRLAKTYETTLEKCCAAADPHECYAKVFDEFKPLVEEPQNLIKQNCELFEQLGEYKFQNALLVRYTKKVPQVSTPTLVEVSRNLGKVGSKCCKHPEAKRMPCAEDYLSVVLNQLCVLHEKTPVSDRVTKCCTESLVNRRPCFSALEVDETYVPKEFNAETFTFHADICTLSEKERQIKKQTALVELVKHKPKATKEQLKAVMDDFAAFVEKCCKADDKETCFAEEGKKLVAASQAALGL

Compound | stability under ethylene oxide sterilization, heating, and aging process [2] | also measured
COc1ccc(O)c(C(C)(C)C)c1 [Butylated hydroxyanisole (BHA), Butylated hydroxyanisole] |  | log P [1]: 1.31
O=C1O[C@H]([C@@H](O)CO)C(O)=C1O [ascorbic acid] | not stable | 
O=C(O)c1ccccc1 [benzoic acid] | not stable | 
OCCNCCO [diethanolamine] | not stable | 
O=C(O)c1cc(O)ccc1O [gentisic acid] | not stable | 
CO[C@H]1C[C@@H]2CC[C@@H](C)[C@@](O)(O2)C(=O)C(=O)N2CCCC[C@H]2C(=O)O[C@H]([C@H](C)C[C@@H]2CC[C@@H](O)[C@H](OC)C2)CC(=O)[C@H](C)/C=C(\C)[C@@H](O)[C@@H](OC)C(=O)[C@H](C)C[C@H](C)/C=C/C=C/C=C/1C [rapamycin] |  | protein bound [3]: 92%
PEG-20 sorbitan monolaurate [Tween 20] |  | log P [1]: about 3.0
